Experimental data reported in ChEMBL document CHEMBL1649487, “Molecular characteristics of travel-related extended-spectrum-beta-lactamase-producing Escherichia coli isolates from the Calgary Health Region” (2009).

Key:
Assay type in all cases: functional
Escherichia coli [1] = assay: Antimicrobial activity against Extended-spectrum beta-lactamase producing Escherichia coli clinical isolate assessed as resistant isolate
Escherichia coli [2] = assay: Antimicrobial activity against Extended-spectrum beta-lactamase producing Escherichia coli clinical isolate assessed as resistant isolate in presence of beta-lactamase inhibitor clavulanic acid
Escherichia coli [3] = assay: Antimicrobial activity against Extended-spectrum beta-lactamase producing Escherichia coli clinical isolate assessed as resistant isolate in presence of beta-lactamase inhibitor Tazobactam

Row | Compound | Activity (Escherichia coli [1]) [%] | other results
1 | NCC[C@H](O)C(=O)N[C@@H]1C[C@H](N)[C@@H](O[C@H]2O[C@H](CN)[C@@H](O)[C@H](O)[C@H]2O)[C@H](O)[C@H]1O[C@H]1O[C@H](CO)[C@@H](O)[C@H](N)[C@H]1O [AMIKACIN] | 1 | 
2 | CC1(C)S[C@@H]2[C@H](NC(=O)[C@H](N)c3ccc(O)cc3)C(=O)N2[C@H]1C(=O)O [AMOXICILLIN] |  | Activity (Escherichia coli [2]): 74%
3 | O=C1CN(/N=C/c2ccc([N+](=O)[O-])o2)C(=O)N1 [NITROFURANTOIN] | 7 | 
4 | CCN1CCN(C(=O)N[C@@H](C(=O)N[C@@H]2C(=O)N3[C@@H]2SC(C)(C)[C@@H]3C(=O)O)c2ccccc2)C(=O)C1=O [PIPERACILLIN] |  | Activity (Escherichia coli [3]): 47%
5 | NC[C@H]1O[C@H](O[C@H]2[C@H](O)[C@@H](O[C@H]3O[C@H](CO)[C@@H](O)[C@H](N)[C@H]3O)[C@H](N)C[C@@H]2N)[C@H](N)C[C@@H]1O [TOBRAMYCIN] | 50 | 
6 | GENTAMICIN | 42 | 
